Reference: patent US20130060013A1, “Compounds useful for treating neurodegenerative disorders” (SATORI PHARMACEUTICALS, INC., priority 2011, published 2013)

Key:
Format in all cases: cell-based
Conditions in all cases: Homo sapiens, compound 5 hours at 37° C., 1% DMSO, percent vehicle fit to 4 parameter curve
Aβ-38 = Aβ-38 level in conditioned media of 2B7 cells (MSD 3-PLEX ELISA)
Experimental: (§1) Assays were conducted to determine the ability of a Compound of Formula I to modulate […], and Aβ-38.
(§2) Plates with capture antibodies were blocked for 1-2 hours at room temperature with 150 μL of the manufactures blocking reagent.
(§3) Cultured 2B7 cells in 96 well plate with 250 uL of media per well until confluent;
(§4) Prepared serial dilutions of compounds in DMSO at 100× the final desired concentration;
(§5) Washed wells with 2B7 cells 1× with 250 uL of media;
(§6) Diluted DMSO stocks 1:100 into media:
(§7) Added 250 μL of media containing compounds (1% DMSO) to wells with 2B7 cells for 5 hours at 37° C.
(§8) Diluted conditioned media: 1 part media with 1% DMSO and 1 part blocking buffer;
(§9) 150 μL of the 250 μL of conditioned media were used.
(§10) Standard Curve Sample Prep:
(§11) Prepared per manufacturer's protocol (see above)
(§12) Seven point standard curve samples were prepared that contained Aβ-42, Aβ-40, and Aβ-38. The highest concentration of Aβ-42 and Aβ-38 was 3,000 pg/mL and the highest concentration of Aβ-40 was 10,000 pg/mL. Subsequent serial dilutions were 1:3 and the final composition of each sample was 1 part blocking buffer and 1 part cell medium containing 1% DMSO.
(§13) Overnight Sample Incubation:
(§14) Blocked plates are washed 5× with MSD wash buffer with a plate washer
(§15) 25 uL of detection antibody and blocker G reagent in MSD blocking solution is added
(§16) 25 uL of samples (1 part conditioned media containing 1% DMSO and 1 part MSD blocking buffer) are then added.
(§17) plates are incubated overnight at 4 degrees C. or 2 hours at room temp
(§18) Wash wells 5× with MSD wash buffer
(§19) Added 150 μL 2×MSD read buffer
(§20) A-Beta peptide levels for each peptide are calculated from the standard curve using the MSD software provided with the MSD 2400 Imager. Percent vehicle values for each compound dosage were then calculated and fit to a 4 parameter curve generating IC50 values.

Aβ-40 = Aβ-40 level in conditioned media of 2B7 cells (MSD 3-PLEX ELISA)
Experimental: as §1
Human (6E10) Ab 3-PLEX elisa kits were purchased from Meso Scale Discovery Labs, 9328 Gaither Road, Gaithersburg, Md. 20877 (Catalog Number K15148E-3). Plates with capture antibodies were blocked for 1-2 hours at room temperature with 150 μL of the manufactures blocking reagent.
as §3, §4, §5, §6, §7, §8, §9, §10, §11, §12, §13, §14, §15, §16, §17, §18, §19, §20

Aβ-42 = Aβ-42 level in conditioned media of 2B7 cells (MSD 3-PLEX ELISA)
Experimental: as §1, §2, §3, §4, §5, §6, §7, §8, §9, §10, §11, §12, §13, §14, §15, §16, §17, §18, §19, §20

| SMILES | IC50 (Aβ-38) | IC50 (Aβ-40) | IC50 (Aβ-42) |
| --- | --- | --- | --- |
| CCO[C@@H]([C@H]1C[C@@H](C)[C@H]2[C@H](O1)[C@H](O)[C@@]1(C)[C@@H]3CC[C@H]4C(C)(C)[C@@H](OC(=O)C5CCN5C(=O)OC(C)(C)C)CCC45C[C@@]35CC[C@]21C)C(C)(C)O (stereo partly drawn) | 1 to 10 µM | 1 to 10 µM | < 1 µM |
| CCO[C@@H](C1C[C@@H](C)[C@H]2C(O1)[C@H](O)[C@@]1(C)C3CC[C@H]4C(C)(C)[C@@H](O[C@H]5CN(C(=O)CC6CNC6)CCO5)CCC45C[C@@]35CC[C@]21C)C(C)(C)O (stereo partly drawn) | < 1 µM | 1 to 10 µM | < 1 µM |
| CCO[C@@H]([C@H]1C[C@@H](C)[C@H]2[C@H](O1)[C@H](O)[C@@]1(C)[C@@H]3CC[C@H]4C(C)(C)[C@@H](O[C@H]5CN([C@H](C)COC)CCO5)CCC45C[C@@]35CC[C@]21C)C(C)(C)O (stereo partly drawn) | 1 to 10 µM | > 10 µM | < 1 µM |
| CCO[C@@H]([C@H]1C[C@@H](C)[C@H]2[C@H](O1)[C@H](O)[C@@]1(C)[C@@H]3CC[C@H]4C(C)(C)[C@@H](O[C@H]5CN([C@@H](C)CN6CCC6)CCO5)CCC45C[C@@]35CC[C@]21C)C(C)(C)O (stereo partly drawn) | < 1 µM | 1 to 10 µM | < 1 µM |
| CCO[C@@H]([C@H]1C[C@@H](C)[C@H]2[C@H](O1)[C@H](O)[C@@]1(C)[C@@H]3CC[C@H]4C(C)(C)[C@@H](OC(=O)[C@@H]5C[C@@H](O)CN5)CCC45C[C@@]35CC[C@]21C)C(C)(C)O (stereo partly drawn) | < 1 µM | 1 to 10 µM | < 1 µM |
| CCO[C@@H]([C@H]1C[C@@H](C)[C@H]2[C@H](O1)[C@H](O)[C@@]1(C)[C@@H]3CC[C@H]4C(C)(C)[C@@H](O[C@H]5CN(CC(=O)N6CCC6)CCO5)CCC45C[C@@]35CC[C@]21C)C(C)(C)O (stereo partly drawn) | < 1 µM | 1 to 10 µM | < 1 µM |
| CCO[C@@H]([C@H]1C[C@@H](C)[C@H]2[C@H](O1)[C@H](O)[C@@]1(C)[C@@H]3CC[C@H]4C(C)(C)[C@@H](O[C@H]5CN([C@@H](C)C(=O)N6CCC6)CCO5)CCC45C[C@@]35CC[C@]21C)C(C)(C)O (stereo partly drawn) | 1 to 10 µM | > 10 µM | < 1 µM |
| CCO[C@@H]([C@H]1C[C@@H](C)[C@H]2[C@H](O1)[C@H](O)[C@@]1(C)[C@@H]3CC[C@H]4C(C)(C)[C@@H](OC(=O)[C@@H]5CCCN5)CCC45C[C@@]35CC[C@]21C)C(C)(C)O (stereo partly drawn) | < 1 µM | 1 to 10 µM | < 1 µM |
| CCO[C@@H]([C@H]1C[C@@H](C)[C@H]2[C@H](O1)[C@H](O)[C@@]1(C)[C@@H]3CC[C@H]4C(C)(C)C(O[C@H]5CN(CCNCCCOCCOCCOCCCNC(=O)CCCCC6SC[C@@H]7NC(=O)N[C@H]67)CCO5)CC[C@@]45CC35CC[C@]21C)C(C)(C)O (stereo partly drawn) | < 1 µM | 1 to 10 µM | < 1 µM |
| CCO[C@@H]([C@H]1C[C@@H](C)[C@H]2[C@H](O1)[C@H](O)[C@@]1(C)[C@@H]3CC[C@H]4C(C)(C)[C@@H](O[C@H]5CN(C(=O)CNS(=O)(=O)C(F)(F)F)CCO5)CCC45C[C@@]35CC[C@]21C)C(C)(C)O (stereo partly drawn) | < 1 µM | 1 to 10 µM | < 1 µM |
| CC(=O)O[C@H]([C@H]1C[C@@H](C)[C@H]2[C@@H](O1)[C@@H](O)[C@@]1(C)[C@@H]3CC[C@H]4C(C)(C)[C@@H](O)CCC45C[C@@]35CC[C@]21C)C(C)(C)O (stereo partly drawn) | – | 1 to 10 µM | 1 to 10 µM |
| CCO[C@@H]([C@H]1C[C@@H](C)[C@H]2[C@H](O1)[C@H](O)[C@@]1(C)[C@@H]3CC[C@H]4C(C)(C)[C@@H](O[C@H]5CN(C6(C)COC6)CCO5)CCC45C[C@@]35CC[C@]21C)C(C)(C)O (stereo partly drawn) | < 1 µM | 1 to 10 µM | < 1 µM |
| CCO[C@@H]([C@H]1C[C@@H](C)[C@H]2[C@H](O1)[C@H](O)[C@@]1(C)[C@@H]3CC[C@H]4C(C)(C)[C@@H](O[C@H]5CN(CC(=O)N(C)C)CCO5)CCC45C[C@@]35CC[C@]21C)C(C)(C)O (stereo partly drawn) | < 1 µM | 1 to 10 µM | < 1 µM |
| CCO[C@@H]([C@H]1C[C@@H](C)[C@H]2[C@H](O1)[C@H](O)[C@@]1(C)[C@@H]3CC[C@H]4C(C)(C)[C@@H](O[C@H]5CN([C@@H](C)CF)CCO5)CC[C@@]45C[C@@]35CC[C@]21C)C(C)(C)O | 1 to 10 µM | > 10 µM | 1 to 10 µM |
| CCO[C@@H]([C@H]1C[C@@H](C)[C@H]2[C@H](O1)[C@H](O)[C@@]1(C)[C@@H]3CC[C@H]4C(C)(C)[C@@H](OC(=O)C5CN(CCOC)C5)CCC45C[C@@]35CC[C@]21C)C(C)(C)O (stereo partly drawn) | < 1 µM | 1 to 10 µM | < 1 µM |
| CCO[C@@H]([C@H]1C[C@@H](C)[C@H]2[C@H](O1)[C@H](O)[C@@]1(C)[C@@H]3CC[C@H]4C(C)(C)[C@@H](O[C@H]5CN([C@@H](C)COC)CCO5)CC[C@@]45C[C@@]35CC[C@]21C)C(C)(C)O | 1 to 10 µM | > 10 µM | < 1 µM |
| CCO[C@@H]([C@H]1C[C@@H](C)[C@H]2[C@H](O1)[C@H](O)[C@@]1(C)[C@@H]3CC[C@H]4C(C)(C)[C@@H](O[C@H]5CN(C(C)(C)CN6CC(F)C6)CCO5)CCC45C[C@@]35CC[C@]21C)C(C)(C)O (stereo partly drawn) | < 1 µM | 1 to 10 µM | < 1 µM |
| CCO[C@@H]([C@H]1C[C@@H](C)[C@H]2[C@H](O1)[C@H](O)[C@@]1(C)[C@@H]3CC[C@H]4C(C)(C)[C@@H](OC(=O)C5CCN5C)CCC45C[C@@]35CC[C@]21C)C(C)(C)O (stereo partly drawn) | 1 to 10 µM | > 10 µM | < 1 µM |
| CCO[C@@H]([C@H]1C[C@@H](C)[C@H]2[C@H](O1)[C@H](O)[C@@]1(C)[C@@H]3CC[C@H]4C(C)(C)[C@@H](O[C@H]5CN(CC(=O)NCCOC)CCO5)CCC45C[C@@]35CC[C@]21C)C(C)(C)O (stereo partly drawn) | 1 to 10 µM | 1 to 10 µM | < 1 µM |
| CCO[C@@H]([C@H]1C[C@@H](C)[C@H]2[C@H](O1)[C@H](O)[C@@]1(C)[C@@H]3CC[C@H]4C(C)(C)[C@@H](O[C@H]5CN(CC(C)(C)O)CCO5)CCC45C[C@@]35CC[C@]21C)C(C)(C)O (stereo partly drawn) | < 1 µM | 1 to 10 µM | < 1 µM |
| CO[C@@H](C1C[C@@H](C)[C@H]2C(O1)[C@H](O)[C@@]1(C)C3CC[C@H]4C(C)(C)[C@@H](O[C@H]5CN(C)CCO5)CC[C@@]45CC35CC[C@]21C)C(C)(C)O (stereo partly drawn) | 1 to 10 µM | 1 to 10 µM | 1 to 10 µM |
| CCO[C@@H]([C@H]1C[C@@H](C)[C@H]2[C@H](O1)[C@H](O)[C@@]1(C)[C@@H]3CC[C@H]4C(C)(C)[C@@H](OC(=O)C5CN(C6CCC6)C5)CCC45C[C@@]35CC[C@]21C)C(C)(C)O (stereo partly drawn) | < 1 µM | 1 to 10 µM | < 1 µM |
| CCO[C@@H]([C@H]1C[C@@H](C)[C@H]2[C@H](O1)[C@H](O)[C@@]1(C)[C@@H]3CC[C@H]4C(C)(C)C(O[C@H]5CN(CCN(CCCOCCOCCOCCCNC(=O)CCCCC6SC[C@@H]7NC(=O)N[C@H]67)CCNC(=O)CCC6(C)N=N6)CCO5)CC[C@@]45CC35CC[C@]21C)C(C)(C)O (stereo partly drawn) | – | 1 to 10 µM | < 1 µM |
| CC(C)[C@@H](OC(=O)N1CCC1)[C@H]1C[C@@H](C)[C@H]2[C@H](O1)[C@H](O)[C@@]1(C)[C@@H]3CC[C@H]4C(C)(C)[C@@H](O[C@H]5CN(C(=O)CNS(=O)(=O)C(F)(F)F)CCO5)CCC45C[C@@]35CC[C@]21C (stereo partly drawn) | < 1 µM | – | 1 to 10 µM |
| CCO[C@@H]([C@H]1C[C@@H](C)[C@H]2[C@H](O1)[C@H](O)[C@@]1(C)[C@@H]3CC[C@H]4C(C)(C)[C@@H](OC(=O)[C@@H]5CNCCO5)CCC45C[C@@]35CC[C@]21C)C(C)(C)O (stereo partly drawn) | < 1 µM | – | < 1 µM |
| CO[C@@H]([C@H]1C[C@@H](C)[C@H]2[C@H](O1)[C@H](O)[C@@]1(C)[C@@H]3CC[C@H]4C(C)(C)[C@@H](O[C@H]5CNCCO5)CCC45C[C@@]35CC[C@]21C)C(C)(C)OC (stereo partly drawn) | < 1 µM | – | < 1 µM |
| CNC1CN(C(=O)O[C@H]2CCC34C[C@]35CC[C@]3(C)[C@@H]6[C@H](O[C@@H]([C@H](OC)C(C)(C)O)C[C@H]6C)[C@H](O)[C@@]3(C)[C@@H]5CC[C@H]4C2(C)C)C1 (stereo partly drawn) | 1 to 10 µM | – | < 1 µM |
